# Test results from article PMC3491871 (The Journal of biological chemistry, 2004).
# Columns and labels:
# [1] = biological target: T1, trypanothione reductase (Trypanosoma cruzi, UniProt P28593); assay: crystal structure of the covalent adduct at […] Å; format: biochemical; conditions: read-out: Ki
# [2] = biological target: T1, trypanothione reductase; assay: protection of oxidised enzyme from QM inactivation; format: biochemical
# T1 sequence (P28593 whole entry): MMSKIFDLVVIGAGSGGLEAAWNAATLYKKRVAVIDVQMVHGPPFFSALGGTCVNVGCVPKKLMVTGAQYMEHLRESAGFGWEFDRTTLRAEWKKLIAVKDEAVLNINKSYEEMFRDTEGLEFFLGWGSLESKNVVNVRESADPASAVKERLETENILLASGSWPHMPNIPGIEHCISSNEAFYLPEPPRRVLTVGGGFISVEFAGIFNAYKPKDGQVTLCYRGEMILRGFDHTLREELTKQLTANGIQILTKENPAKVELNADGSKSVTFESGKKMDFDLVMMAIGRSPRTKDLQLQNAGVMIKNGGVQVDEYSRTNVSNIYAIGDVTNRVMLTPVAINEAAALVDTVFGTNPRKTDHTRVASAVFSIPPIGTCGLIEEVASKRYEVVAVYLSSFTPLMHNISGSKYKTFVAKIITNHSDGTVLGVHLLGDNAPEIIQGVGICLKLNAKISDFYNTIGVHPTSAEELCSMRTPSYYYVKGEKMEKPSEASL
SMILES,KI (inactivation) [1],Ki [2]
"COc1ccc2nc3cc(Cl)ccc3c(NC(C)CCCN(CCCl)CCCl)c2c1 (racemic) [QM, quinacrine mustard]",41 ± 8 µM,–
CCN(CC)CCCC(C)Nc1c2ccc(Cl)cc2nc2ccc(OC)cc12 (centres unmarked) [quinacrine],–,208 ± 45 µM
